A short description of data set [1]: Metabolic stability in rat liver microsomes assessed as compound remaining at 10 uM after 30 mins by LC-MS analysis. The note with it: human.
Data set [2] concerns the target T1, Prostaglandin G/H synthase 1 (Ovis aries, UniProt P05979).
T1 sequence (P05979 whole entry): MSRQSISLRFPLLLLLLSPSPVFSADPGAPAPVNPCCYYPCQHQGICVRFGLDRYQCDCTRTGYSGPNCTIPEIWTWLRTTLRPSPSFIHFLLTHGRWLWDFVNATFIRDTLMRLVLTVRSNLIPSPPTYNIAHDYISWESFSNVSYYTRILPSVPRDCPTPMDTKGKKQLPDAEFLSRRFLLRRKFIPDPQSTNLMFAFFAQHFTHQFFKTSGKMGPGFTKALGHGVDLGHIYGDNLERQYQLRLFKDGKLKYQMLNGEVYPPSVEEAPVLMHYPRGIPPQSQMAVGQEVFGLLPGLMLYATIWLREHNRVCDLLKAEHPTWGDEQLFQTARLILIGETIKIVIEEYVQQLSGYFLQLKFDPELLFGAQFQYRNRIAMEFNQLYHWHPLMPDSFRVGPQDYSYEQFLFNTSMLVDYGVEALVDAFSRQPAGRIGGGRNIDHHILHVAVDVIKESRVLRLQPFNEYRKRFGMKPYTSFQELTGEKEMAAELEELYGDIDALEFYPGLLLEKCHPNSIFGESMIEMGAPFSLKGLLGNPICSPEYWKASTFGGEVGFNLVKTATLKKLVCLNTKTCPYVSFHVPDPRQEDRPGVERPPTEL
The data set can be described thus: Inhibition of ovine COX1-mediated arachidonic acid oxidation using [14C]AA as substrate after 5 mins by GC/NICI/MS analysis.

Data set [3] has as its system HepG2. Kind of data set: Cytotoxicity against human HepG2 cells assessed as intracellular ATP level after 24 hrs by luciferase reporter gene assay. The following applies: HepG2, 24 h. It is filed as cell-based. Background: In a reporter assay the amount or activity of a reporter protein is the signal.
Data set [4] concerns the target T2, Myoglobin (Homo sapiens, UniProt P02144).
T2 sequence (P02144 whole entry): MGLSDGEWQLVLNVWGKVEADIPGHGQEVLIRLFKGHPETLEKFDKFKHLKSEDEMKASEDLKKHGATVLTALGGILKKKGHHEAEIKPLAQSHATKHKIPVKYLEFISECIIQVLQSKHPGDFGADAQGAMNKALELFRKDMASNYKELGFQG
The data set can be described thus: Inhibition of myoglobin (unknown origin)-mediated arachidonic acid oxidation using [14C]AA as substrate after 3 hrs by GC/NICI/MS analysis.

pEC50, pIC50: −log10 of the molar value.

The pIC50 is −log10 of the IC50, conventionally taken in molar units. A low value points to a large IC50. Usually pEC50 stands for −log10 of the EC50, conventionally taken in molar units. With `Cc1nc2c(c(C)c1O)CNC(=O)N2`, the share remaining at 0.5 h, 10 µM in data set [1] came out at 87%. Moreover, in data set [2], the pIC50 was under 3.00. For the same compound, in data set [3], the pEC50 was 2.53.
With `Cc1nc2c(c(C)c1O)COC(=O)N2`, the amount remaining at 0.5 h, 10 µM in data set [1] worked out at 97%. The compound further gave a negative logarithm of the IC50 (pIC50) in data set [2] of 3.70. Also, the pEC50 in data set [3] was under 2.30.
On the same counts, the results for `O=C1NCc2cc(O)cnc2N1` are 108%, 3.35 and 2.32.
Regarding `CC(=O)Nc1ccc(O)cc1` [ACETAMINOPHEN], the pIC50 is 5.64 in data set [4] and 3.43 in data set [2]. For the same compound, the negative-log EC50 (pEC50) in data set [3] was 3.23.
